Reference: article PMC11124341, “4-Hydroxybenzoic Acid-Based Hydrazide–Hydrazones as Potent Growth Inhibition Agents of Laccase-Producing Phytopathogenic Fungi That Are Useful in the Protection of Oilseed Crops” (Molecules, 2024)

Experiments:
[1] = system: sunflower (Helianthus annuus L.) seeds; assay: Phytotest 1: phytotoxicity, seed germination and root growth; type: in vivo; settings: 50 µg/mL; versus water–ethanol 0.5% (v/v) control; <90% inhibition, 90–110% no effect, >110% stimulation
Excerpt: In the experiments with plants, two aspects were taken under consideration: (1) phytotoxicity, which determined the toxicity of the hydrazide–hydrazones on seed germination and root growth, and (2) study on the behavior of seeds in the presence of the tested hydrazide–hydrazones and pathogens producing laccase (B. cinerea and S. sclerotiorum). The non-coated seeds of Linum usitatissimum, Helianthus annuus, and Brassica napus var. napus were provided by the Institute of Soil Science and Plant Cultivation, National Research Institute in Pulawy, Department of Weed Science and Tillage Systems, and Institute of Technology and Life Sciences–National Research Institute Falenty (Poland). Both phytotests were performed based on direct-contact microbiotests following the protocol recommended by the manufacturer (PhytotestkitTM, MicroBio Tests, Mariakerke, Belgium) with the authors’ modifications.
The main phytotest equipment (Tigret, Warsaw, Poland) and general methods are described as follows. Test plates (21 × 15.5 × 0.8 cm) provide optimal moisture and enable observation of seed germination and data reading at the end of the test. A single plate is made of polyvinylchloride and composed of both a transparent bottom and a covering part that are stuck together by a set of press buttons. […] Such prepared wet support was covered with a black filter paper that soaked the solution and was applied for further testing.
In the assay of phytotoxicity (1), the seeds of three dicota plants were used, namely ten seeds of flax or rapeseed and six seeds of sunflower. The seeds were transferred directly on the filter surface by placing them along the line at approximately 1 cm from the ridge at equal distances. Then, the seeds on the filter surface were covered with a covering part and placed in a holder.
All test plates were put vertically in a special incubator to allow free germination and growth of roots at 25 °C through 5 days in the dark. The test was performed in triplicate for each test plant. The results were expressed as the germination index values (GI, Equation (2)) concerning the plant growth controls in water–ethanol solution for (1). […] The GI was calculated from the formula and categorized as an inhibition for GI values < 90%, as stimulation > 110%, and between 90 and 110% as non-toxic/no effect as proposed in the literature. (2) GI,%=Gs×Ls/Gc×Lc×100% where Gs is seed germination (%), Ls is root elongation (mm) for the test plate, and Gc and Lc are corresponding values for the control plates. Gc was calculated as the proportion of germinated seeds in the test in relation to the number of germinated seeds in the control. The control was the representative number of seeds that germinated on a medium with 0.5% (v/v) of ethanol.

MCF-10A cells = assay: Antiproliferative assay in vitro (SRB); type: cell-based, human; settings: Homo sapiens, MCF-10A; 72 h exposure, SRB method; read-out: Average IC50 ± SD, MCF-10A line
Method: (§1) Antiproliferative tests were performed on a normal human breast cell line, MCF-10A, and a mouse embryonic fibroblast: Balb/3T3. Both cell lines were obtained from the American Type Culture Collection (Rockville, MD, USA). The cell lines were maintained in the Institute of Immunology and Experimental Therapy, Wroclaw, Poland. MCF-10A cells were cultured in the F-12 nutrient mixture (Gibco, Scotland, UK), supplemented with 5% horse serum (Gibco, Scotland, UK), […] (Vibrio cholerae Pacini), 10 μg/mL of hydrocortisone and 20 ng/mL of human epidermal growth factor (all from Sigma-Aldrich, Chemie GmbH, Steinheim, Germany). Balb/3T3 cells were cultured in Dulbecco medium (Gibco, Darmstadt, Germany) supplemented with 10% fetal bovine serum (Thermo Fisher Scientific, Waltham, MA, USA) and 2 mM l-glutamine (Sigma-Aldrich, St. Louis, MO, USA). All culture media contained antibiotics: 100 U/mL penicillin (Sigma-Aldrich, St. Louis, MO, USA) and 100 µg/mL streptomycin (Polfa-Tarchomin, Warsaw, Poland). Both cell lines were cultured during the entire experiment in a humid atmosphere at 37 °C and 5% CO2. Amistar 250 SC (fungicide) with active compound azoxystrobin was provided by the Institute of Soil Science and Plant Cultivation, National Research Institute in Pulawy, Department of Weed Science and Tillage Systems in Wroclaw, Poland […].
(§2) Twenty-four hours prior to the applications of the tested compounds, MCF-10A and Balb/3T3 cells were plated in 96-well plates at a density of 10^4 cells per well and cultured at 37 °C in a humid atmosphere saturated with 5% CO2 for 24 h. Stock solutions of the compounds were prepared ex tempore for each test by dissolving in DMSO. The cells were also exposed to the reference drugs: cis-platin (Accord, London, UK) (10–0.01 µg/mL) and DMSO (Sigma-Aldrich) (at the concentrations corresponding to those in the tested agent dilutions). The solutions were then diluted in culture medium RPMI 1640 + Opti-MEM (1:1) (both from Gibco, Scotland, UK), supplemented with 2 mM l-glutamine, 5% fetal bovine serum (all from Sigma-Aldrich Chemie GmbH, Steinheim, Germany). An assay was performed after 72 h of exposure to the tested compounds 13, 17, 18, 19, 25, 27, 30, 4-hba, 4-hbah, and 3,4,5-hba (0.5, 5.0, 50, and to 500 µM) and azoxystrobin fungicide (0.05, 0.5, 5.0 and 50 µM). The antiproliferative effect in vitro was determined by the SRB method (sulforhodamine B colorimetric assay). The optical densities of the samples were measured on the Synergy H4 photometer (BioTek Instruments, Winooski, VT, USA) at 540 nm. The results were calculated as 50% inhibitory concentration (IC50), namely the dose of the tested compound inhibiting proliferation of the tested cells by 50% as compared to the untreated control cells, in the Prolab-3 system based on Cheburator 0.4 software using the two-point method. Each test was repeated 3–5 times.
(§3) Cytotoxicity was performed on two normal cell lines: MCF -10A and Balb/3T3, using as controls cis-platin in the concentrations of 0.03 32, 0.3 32, 3.32 and 33.2 µM and azoxystrobin fungicide in the […]
(§4) were tested in the concentrations of 0.5, 5.0, 50, and 500 µM. The relation of compound concentration […]
(§5) Further, a comparison of the influence of each tested concentration in the group of tested compounds on cell lines was illustrated in Figure S130 a (MCF-10A) and b (Balb/T3T).
(§6) Table S4. Cytotoxicity results for compounds 13, 17, 18, 19, 25, 27, and 30 investigated on normal mammalian lines: MCF -10A and B alb/3T3 using Azoxystrobin (fungicide) and cis-platin as reference compounds.
(§7) Cytotoxicity profile presented as proliferation inhibition, % (y -axis) in the function of compound concentration, […]
(§8) Structure MCF-10A Balb/3T3
(§9) Proliferation inhibition [%] […]

Balb/3T3 cells = assay: Antiproliferative assay in vitro (SRB); type: cell-based, mouse; settings: Mus musculus, BALB/3T3; 72 h exposure, SRB method; read-out: Average IC50 ± SD, Balb/3T3 line
Method: as §1, §2, §3, §4, §5, §6, §7, §8, §9

[2] = biological target: laccase from Trametes versicolor; settings: read-out: Laccase inhibition, Ki; cited from earlier work

| Compound | Germination index (GI), sunflower, test 1 [1] | IC50 (MCF-10A cells) | IC50 (Balb/3T3 cells) | Ki [2] |
| --- | --- | --- | --- | --- |
| O=C(N/N=C/c1cc(O)ccc1O)c1ccc(O)cc1 [compound 13] | 87% | 213 ± 34.1 µM | 132 ± 9.22 µM |  |
| COc1cc(/C=N/NC(=O)c2ccc(O)cc2)ccc1O [compound 17] |  | 275 ± 41.5 µM | 217 ± 61.2 µM | 251 µM |
| CC(C)(C)c1cccc(/C=N/NC(=O)c2ccc(O)cc2)c1O [compound 18] | no effect | 6.41 ± 2.05 µM | 11.4 ± 2.54 µM | 24 µM |
| O=C(N/N=C/c1cccc(-c2ccccc2)c1O)c1ccc(O)cc1 [compound 19] | no effect | 3.44 ± 0.83 µM | 3.97 ± 0.15 µM | 25.3 µM |
| Cc1cc(/C=N/NC(=O)c2ccc(O)cc2)c(O)c(CO)c1 [compound 25] | non-toxic | 27.5 ± 1.83 µM | 27.2 ± 4.3 µM | ≥ 1000 µM |
| CC(C)(C)c1cc(/C=N/NC(=O)c2ccc(O)cc2)c(O)c(C(C)(C)C)c1 [compound 27] | 82% | 7.73 ± 1.08 µM | 11.7 ± 0.69 µM | 17.9 µM |
| Cc1cc(/C=N/NC(=O)c2ccc(O)cc2)c(O)c(C(C)(C)C)c1 [compound 30] | 67% | 8.85 ± 5.47 µM | 23.1 ± 3.87 µM | 26.4 µM |
